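GI50 = concentration required for 50% inhibition of growth. Definition used: TGI = concentration required for complete inhibition of growth.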
Tests used:
Assay in all cases: inhibition of tumour cell growth, NCI panel, 384-well format
A498 renal = system: A498 renal
A549 NSCLC = system: A549 NSCLC
ACHN renal = system: ACHN renal
BT-549 breast = system: BT-549 breast
CAKI-1 renal = system: CAKI-1 renal
COLO 205 colon = system: COLO 205 colon
DU-145 prostate = system: DU-145 prostate
EKVX NSCLC = system: EKVX NSCLC
HCC-2998 colon = system: HCC-2998 colon
HCT-116 colon = system: HCT-116 colon
HCT-15 colon = system: HCT-15 colon
HL-60(TB) leukemia = system: HL-60(TB) leukemia
HOP-62 NSCLC = system: HOP-62 NSCLC
HOP-92 NSCLC = system: HOP-92 NSCLC
HS 578T breast = system: HS 578T breast
HT29 colon = system: HT29 colon
IGROV1 ovarian = system: IGROV1 ovarian
KM12 colon = system: KM12 colon
LOX IMVI melanoma = system: LOX IMVI melanoma
M14 melanoma = system: M14 melanoma
MALME-3M melanoma = system: MALME-3M melanoma
MCF7 breast = system: MCF7 breast
MDA-MB-231 breast = system: MDA-MB-231 breast
MDA-MB-435 melanoma = system: MDA-MB-435 melanoma
MDA-MB-468 breast = system: MDA-MB-468 breast
MOLT-4 leukemia = system: MOLT-4 leukemia
NCI-H226 lung = system: NCI-H226 lung
NCI-H23 lung = system: NCI-H23 lung
NCI-H322M lung = system: NCI-H322M lung
NCI-H460 NSCLC = system: NCI-H460 NSCLC
NCI-H522 lung = system: NCI-H522 lung
NCI/ADR-RES ovarian = system: NCI/ADR-RES ovarian
OVCAR-3 ovarian = system: OVCAR-3 ovarian
OVCAR-4 ovarian = system: OVCAR-4 ovarian
OVCAR-5 ovarian = system: OVCAR-5 ovarian
OVCAR-8 ovarian = system: OVCAR-8 ovarian
PC-3 prostate = system: PC-3 prostate
RPMI-8226 leukemia = system: RPMI-8226 leukemia
RXF 393 renal = system: RXF 393 renal
SF-268 CNS = system: SF-268 CNS
SF-295 CNS = system: SF-295 CNS
SF-539 CNS = system: SF-539 CNS
SK-MEL-28 melanoma = system: SK-MEL-28 melanoma
SK-MEL-5 melanoma = system: SK-MEL-5 melanoma
SK-OV-3 ovarian = system: SK-OV-3 ovarian
SN12C renal = system: SN12C renal
SNB-19 CNS = system: SNB-19 CNS
SNB-75 CNS = system: SNB-75 CNS
SR leukemia = system: SR leukemia
T-47D breast = system: T-47D breast
TK-10 renal = system: TK-10 renal
U251 glioblastoma = system: U251 glioblastoma
UACC-257 melanoma = system: UACC-257 melanoma
UACC-62 melanoma = system: UACC-62 melanoma

N[C@@H]1CCCN(c2c(/C=C3\SC(=O)NC3=O)cccc2-c2ccccc2)C1
GI50 (A498 renal): 16.6 µM
TGI (A498 renal): 30.3 µM
GI50 (A549 NSCLC): 16.7 µM
TGI (A549 NSCLC): 30.8 µM
GI50 (ACHN renal): 17.7 µM
TGI (ACHN renal): 31.7 µM
GI50 (BT-549 breast): 1.9 µM
TGI (BT-549 breast): 4.17 µM
GI50 (CAKI-1 renal): 18.5 µM
TGI (CAKI-1 renal): 32.8 µM
GI50 (COLO 205 colon): 14.1 µM
TGI (COLO 205 colon): 27.1 µM
GI50 (DU-145 prostate): 16.9 µM
TGI (DU-145 prostate): 30.7 µM
GI50 (EKVX NSCLC): 16.4 µM
TGI (EKVX NSCLC): 30 µM
GI50 (HCC-2998 colon): 14.5 µM
TGI (HCC-2998 colon): 27.7 µM
GI50 (HCT-116 colon): 15.4 µM
TGI (HCT-116 colon): 28.9 µM
GI50 (HCT-15 colon): 17.7 µM
TGI (HCT-15 colon): 31.7 µM
GI50 (HL-60(TB) leukemia): 1.31 µM
TGI (HL-60(TB) leukemia): 16.5 µM
GI50 (HOP-62 NSCLC): 11.7 µM
TGI (HOP-62 NSCLC): 23.9 µM
GI50 (HOP-92 NSCLC): 11.5 µM
TGI (HOP-92 NSCLC): 23.8 µM
GI50 (HS 578T breast): 13.8 µM
TGI (HS 578T breast): 26.8 µM
GI50 (HT29 colon): 15.2 µM
TGI (HT29 colon): 28.8 µM
GI50 (IGROV1 ovarian): 17.1 µM
TGI (IGROV1 ovarian): 31.2 µM
GI50 (KM12 colon): 16.9 µM
TGI (KM12 colon): 30.8 µM
GI50 (LOX IMVI melanoma): 17.8 µM
TGI (LOX IMVI melanoma): 31.6 µM
GI50 (M14 melanoma): 14.6 µM
TGI (M14 melanoma): 27.8 µM
GI50 (MALME-3M melanoma): 12.9 µM
TGI (MALME-3M melanoma): 25.7 µM
GI50 (MCF7 breast): 14.5 µM
TGI (MCF7 breast): 27.8 µM
GI50 (MDA-MB-231 breast): 14.5 µM
TGI (MDA-MB-231 breast): 27.8 µM
GI50 (MDA-MB-435 melanoma): 15.1 µM
TGI (MDA-MB-435 melanoma): 28.5 µM
GI50 (MDA-MB-468 breast): 14.6 µM
TGI (MDA-MB-468 breast): 27.8 µM
GI50 (MOLT-4 leukemia): 13.4 µM
TGI (MOLT-4 leukemia): 26.3 µM
GI50 (NCI-H226 lung): 13.8 µM
TGI (NCI-H226 lung): 26.7 µM
GI50 (NCI-H23 lung): 16.8 µM
TGI (NCI-H23 lung): 30.6 µM
GI50 (NCI-H322M lung): 18 µM
TGI (NCI-H322M lung): 31.9 µM
GI50 (NCI-H460 NSCLC): 16.8 µM
TGI (NCI-H460 NSCLC): 30.6 µM
GI50 (NCI-H522 lung): 13.5 µM
TGI (NCI-H522 lung): 26.4 µM
GI50 (NCI/ADR-RES ovarian): 18.1 µM
TGI (NCI/ADR-RES ovarian): 33.1 µM
GI50 (OVCAR-3 ovarian): 13.1 µM
TGI (OVCAR-3 ovarian): 25.9 µM
GI50 (OVCAR-4 ovarian): 12.3 µM
TGI (OVCAR-4 ovarian): 25.3 µM
GI50 (OVCAR-5 ovarian): 17 µM
TGI (OVCAR-5 ovarian): 30.8 µM
GI50 (OVCAR-8 ovarian): 16.2 µM
TGI (OVCAR-8 ovarian): 29.9 µM
GI50 (PC-3 prostate): 13.2 µM
TGI (PC-3 prostate): 26 µM
GI50 (RPMI-8226 leukemia): 0.543 µM
TGI (RPMI-8226 leukemia): 3.07 µM
GI50 (RXF 393 renal): 17 µM
TGI (RXF 393 renal): 30.8 µM
GI50 (SF-268 CNS): 16.8 µM
TGI (SF-268 CNS): 30.6 µM
GI50 (SF-295 CNS): 6.08 µM
TGI (SF-295 CNS): 18.7 µM
GI50 (SF-539 CNS): 7.38 µM
TGI (SF-539 CNS): 20.2 µM
GI50 (SK-MEL-28 melanoma): 16.9 µM
TGI (SK-MEL-28 melanoma): 30.7 µM
GI50 (SK-MEL-5 melanoma): 11.4 µM
TGI (SK-MEL-5 melanoma): 23.5 µM
GI50 (SK-OV-3 ovarian): 14.8 µM
TGI (SK-OV-3 ovarian): 28.5 µM
GI50 (SN12C renal): 19.4 µM
TGI (SN12C renal): 33.6 µM
GI50 (SNB-19 CNS): 4.67 µM
TGI (SNB-19 CNS): 15 µM
GI50 (SNB-75 CNS): 3.5 µM
TGI (SNB-75 CNS): 12.1 µM
GI50 (SR leukemia): 1.16 µM
TGI (SR leukemia): 15.5 µM
GI50 (T-47D breast): 15.6 µM
TGI (T-47D breast): 29 µM
GI50 (TK-10 renal): 12.3 µM
TGI (TK-10 renal): 24.9 µM
GI50 (U251 glioblastoma): 8.54 µM
TGI (U251 glioblastoma): 20.8 µM
GI50 (UACC-257 melanoma): 15.9 µM
TGI (UACC-257 melanoma): 29.4 µM
GI50 (UACC-62 melanoma): 16.6 µM
TGI (UACC-62 melanoma): 30.4 µM
